For 3 compounds, IC50 and Activity results are on record in ChEMBL document CHEMBL4334461, “Taicrypnacids A and B, a Pair of C37 Heterodimeric Diterpenoid Stereoisomers from Taiwania cryptomerioides” (J Nat Prod, 2019).

Activity calls are given as the source filed them. The rule behind the calls is not given here. A value given as a limit tells only on which side of the number the result lay.

The subject of data set [1] is HCT-116. Kind of data set: Cytotoxicity against human HCT116 cells measured after 24 hrs by MTT assay. Particulars: HCT-116, 24 h. The class given is functional, cell-based.
In data set [2] the test system is U2OS. Kind of data set: Cytotoxicity against human U2OS cells measured after 24 hrs by MTT assay. In kind it is functional, cell-based. On the technique in general: Formazan colour is commonly taken as a measure of viable cells.
Data set [3] concerns MCF7. Kind of data set: Cytotoxicity against human MCF7 cells measured after 24 hrs by MTT assay. In kind it is functional, cell-based. Particulars: MCF7, 24 h.
For data set [4], the system named is MCF7. Kind of data set: Induction of mitochondrial morphological changes in human MCF7 cells assessed as dilation of mitochondria at 5 to 20 uM measured after 24 hrs by Mito-tracker and Hoechst 33342 staining based confocal microscopy. The class given is functional, cell-based.
Data set [5] deals with MCF7. Kind of data set: Induction of mitochondria-mediated apoptosis in human MCF7 cells. The class given is functional, cell-based.
The subject of data set [6] is MCF7. Kind of data set: Induction of cell death in human MCF7 cells assessed as increase in intracellular calcium measured after 24 hrs by Fluo-4/AM probe based confocal microscopic analysis. In kind it is functional. On the technique in general: A change in cytosolic calcium serves as a functional read-out for many receptors and channels.
The test system of data set [7] is MCF7. Kind of data set: Induction of endoplasmic reticular stress in human MCF7 cells assessed as upregulation of XBP1s by Western blot analysis. In kind it is functional, cell-based. In general terms: A western blot detects proteins with antibodies after separation by electrophoresis.
Data set [8] has as its system MCF7. Kind of data set: Induction of morphological changes in human MCF7 cells assessed as change in vacuole at 5 to 20 uM measured after 24 hrs by optical microscopy analysis. In kind it is functional, cell-based.
The subject of data set [9] is MCF7. Kind of data set: Induction of apoptosis in human MCF7 cells assessed as activation of cleaved PARP. In kind it is functional, cell-based.
Data set [10] has as its system MCF7. Kind of data set: Induction of cell death in human MCF7 cells assessed as increase in ROS level measured after 24 hrs by DCFHDA probe based flow cytometry. The class given is functional.
Data set [11] deals with MCF7. Kind of data set: Induction of endoplasmic reticular stress in human MCF7 cells assessed as upregulation of GRP78 by Western blot analysis. In kind it is functional, cell-based.
Data set [12] relates to MCF7. Kind of data set: Induction of ROS-mediated autophagy in human MCF7 cells assessed as increase in LC3-2/LC3-1 ratio. The class given is functional, cell-based.
The subject of data set [13] is MCF7. Kind of data set: Induction of apoptosis in human MCF7 cells assessed as activation of cleaved caspase-9. In kind it is functional, cell-based.
Data set [14] deals with MCF7. Kind of data set: Induction of endoplasmic reticular stress in human MCF7 cells assessed as upregulation of CHOP by Western blot analysis. The class given is functional, cell-based.
Data set [15] has as its system MCF7. Kind of data set: Induction of apoptosis in human MCF7 cells assessed as activation of cleaved caspase-3. The class given is functional, cell-based.
For data set [16], the system named is MCF7. Kind of data set: Induction of ROS-mediated autophagy in human MCF7 cells assessed as downregulation of p62. In kind it is functional, cell-based.
In data set [17] the test system is MCF-10A. Kind of data set: Cytotoxicity against human MCF10A cells at 3.125 to 50 uM measured after 24 hrs by MTT assay. In kind it is cell-based.
The test system of data set [18] is MCF7. Kind of data set: Induction of endoplasmic reticulum vacuolation in human MCF7 cells assessed as increase in vacuole formation at 5 to 20 uM measured after 24 hrs by ER-tracker and Hoechst 33342 staining based confocal microscopy. The class given is functional, cell-based.
For data set [19], the system named is MCF7. Kind of data set: Induction of endoplasmic reticular stress in human MCF7 cells assessed as upregulation of IRE1a by Western blot analysis. In kind it is functional, cell-based.
In data set [20] the test system is MCF7. Kind of data set: Induction of apoptosis in human MCF7 cells assessed as activation of cleaved caspase-7. The class given is functional, cell-based.
The subject of data set [21] is MCF7. Kind of data set: Induction of ROS-mediated autophagy in human MCF7 cells assessed as increase in autophagosome numbers. The class given is functional, cell-based.

In general, IC50 refers to the midpoint of a concentration-inhibition curve. The low end stands for greater potency, the high end for weaker potency. In the case of `C=C1CC[C@@H]2[C@](C)(CCC[C@@]2(C)C(=O)OC)[C@H]1C/C=C(\C)[C@@H]1C[C@@H]2C[C@H]3C(C)(C)CCC[C@]3(C)c3ccc(O)c(c32)O1`, the IC50 in data set [1], in [2] and in data set [3] was over 50 µM throughout.
As to `C=C1CC[C@@H]2[C@](C)(CCC[C@@]2(C)C(=O)O)[C@H]1C/C=C(\C)[C@H]1C[C@H]2C[C@H]3C(C)(C)CCC[C@]3(C)c3ccc(O)c(c32)O1`, the IC50 in data set [1] turned out to be 7.8 µM; in data set [2] it was 9.7 µM; in [3] it was 9.9 µM.
As for `C=C1CC[C@@H]2[C@](C)(CCC[C@@]2(C)C(=O)O)[C@H]1C/C=C(\C)[C@@H]1C[C@@H]2C[C@H]3C(C)(C)CCC[C@]3(C)c3ccc(O)c(c32)O1`, the result in data set [4], in [5], in data set [7], in [8], in [9] and in data set [11] was Active. Further, the outcome in [12], in data set [13], in data set [14], in data set [15], in data set [16] and in data set [18] was Active. Besides, the outcome in [19], in data set [20] and in [21] was Active. Besides, the Activity entry in data set [6] was “Dose-dependent effect”; in [10], “Dose-dependent effect”; in data set [17] it was “Toxic”. In addition, the figures for the IC50 in data set [1], in [2] and in data set [3] were 7.5 µM, 8.4 µM and 7.4 µM, respectively.
